Source: patent US6924145B1, “Selection method” (Danisco A/S, priority 1998, dated 2005)

What was measured:
[1] = tested on: sugar beet cotyledonary explants; test: Toxicity of galactose to sugar beet cotyledonary explants; assay type: cell-based, Beta vulgaris; settings: 20 g/l sucrose and various concentrations galactose; 4-5 weeks
Protocol: In order to be useful for selection, the selective component (otherwise called selective agent) should not be able to sustain significant growth and preferably have adverse/toxic effects to the non-transformed cells/tissues. To assess the applicability of galactose selection following transformation, a number of plant species representing a range of different botanical families were tested for sensitivity to galactose, using explants which may be suitable for transformation experiments. Cotyledonary explants useful for the transformation of sugar beet were prepared by excising the cotyledons from […] seedlings (Joersbo er al. 1998. Mol. Breeding 4: 111-117). The leaves were transferred to modified MS-medium (Murashiee and Skoog 1962. Physiol. Plant. 15: 473-497) containing 20 g/l sucrose and various concentrations galactose.

[2] = tested on: pea hypocotyl explants; test: Toxicity of galactose to pea hypocotyl explants; assay type: cell-based, Pisum sativum; settings: after 5 weeks; versus control medium with 20 g/l sucrose (no galactose)
Protocol: In order to be useful for selection, the selective component (otherwise called selective agent) should not be able to sustain significant growth and preferably have adverse/toxic effects to the non-transformed cells/tissues. To assess the applicability of galactose selection following transformation, a number of plant species representing a range of different botanical families were tested for sensitivity to galactose, using explants which may be suitable for transformation experiments. Hypocotyl explants useful for the transformation of pea were prepared by excising the hypocotyl from 7 d old seedlings and transferred to a medium, according to Nielsen er al. (1991. Physiol. Plant 82: 99-102), containing various concentrations of sucrose and galactose. After 5 weeks, the growth of the explants were evaluated.

[3] = tested on: potato leaf explants; test: Toxicity of galactose to potato leaf explants (shoot regeneration); assay type: cell-based, Solanum tuberosum
Protocol: In order to be useful for selection, the selective component (otherwise called selective agent) should not be able to sustain significant growth and preferably have adverse/toxic effects to the non-transformed cells/tissues. To assess the applicability of galactose selection following transformation, a number of plant species representing a range of different botanical families were tested for sensitivity to galactose, using explants which may be suitable for transformation experiments. Young leaves useful for the transformation of potato were prepared from leaves of 28 d old in vitro shoot cultures. The leaves were cut off avoiding the meristem at the leaf corner and were cut twice across the […]. The explants were then put on modified MS-medium (Murashige and Skoog 1962. Physiol. Plant. 15: 473-497) containing various concentrations of sucrose and galactose. After 3 weeks, shoots were harvested and the explants were transferred to fresh medium of the same composition. This was repeated for 2 more harvests and the total number of explants with regenerated shoots formed on each medium was calculated (see table below).

[4] = tested on: oil seed rape hypocotyl explants inoculated with Agrobacterium tumefaciens EHA101; test: Selection of transgenic oil seed rape on galactose containing media; assay type: cell-based, Brassica napus; settings: galactose 2.5 g/l, sucrose 10 g/l
Protocol: Hypocotyl explants of oil seed rape were prepared using a protocol modified according to Radke et al. (1988. Theor. Appl. Genet. 78: 161-168). Hypocotyls of 5 d old seedlings were cut into 1 cm segments and inoculated with a suspension of Agrobacterium tumefaciens strain EHA101 (OD660=0.1-0.5, prepared according to standard procedures). After inoculation, the explants were dried carefully on filterpaper before co-cultivation.
(§1) After co-culture, the explants were transferred to selection medium consisting of modified MS-medium (Murashige and Skoog 1962. Physiol. Plant. 15: 473-497) supplemented with 500 mg/l carbenicillin and various concentrations of sucrose and galactose. After 7-8 weeks, shoots were harvested and transgenicity was evaluated by subjecting the harvested shoots to the assay for β-glucuronidase activity (Jefferson et al. 1987. Plant Mol. Biol. Rep. 5: 387-405), a marker enzyme encoded by a gene placed adjacent the selective gene on the T-DNA of the transformation vector (FIG. 3).

[5] = tested on: immature wheat embryos; test: Toxicity of galactose to immature wheat embryos (germination and shoot growth); assay type: cell-based, Triticum aestivum; settings: 20 g/l sucrose, relative to control medium (no galactose) = 100
Protocol: In order to be useful for selection, the selective component (otherwise called selective agent) should not be able to sustain significant growth and preferably have adverse/toxic effects to the non-transformed cells/tissues. To assess the applicability of galactose selection following transformation, a number of plant species representing a range of different botanical families were tested for sensitivity to galactose, using explants which may be suitable for transformation experiments. As an example of a monocotyledonous species, wheat was studied. Immature wheat embryos (2-3 weeks old, a total of 161) were carefully removed from the seed and were cultivated on Gamborg B5 medium (Gamborg et al. 1968. Exp. Cell Res. 50: 151-158) supplemented with 9.0 g/l Bacto agar. 20 g/l sucrose and galactose according to the experiment. The embryos were cultivated in the dark for about 10 days where germinated embryos were transferred to fresh medium of the same composition and cultivated in a 16 h/8 h day/night regime for 4-5 weeks. The effect of galactose was evaluated by the number of germinated embryos and by measuring the length of the leaf on these embryos, relative to the control medium (no galactose).

[6] = tested on: sunflower explants; test: Toxicity of galactose to sunflower apical explants (fresh weight); assay type: cell-based, Helianthus annuus; settings: 20 g/l sucrose, 4-5 weeks, above controls on medium devoid of carbohydrate
Protocol: (§2) In order to be useful for selection, the selective component (otherwise called selective agent) should not be able to sustain significant growth and preferably have adverse/toxic effects to the non-transformed cells/tissues. To assess the applicability of galactose selection following transformation, a number of plant species representing a range of different botanical families were tested for sensitivity to galactose, using explants which may be suitable for transformation experiments.
The preparation of apical explants useful for the transformation of sunflower were modified according to Knittel et al. (1994. Plant Cell Rep. 14: 81-86). The seed coats of 2 d old seedlings were gently removed and the cotyledons, the emerging root and the top of the apex were removed. The remaining part of the apex was cut off and divided into two halves and cultivated according to Knittel et al., with 20 g/l sucrose in the medium and galactose according to the experiment. After 4-5 weeks of culture at a 16 h/8 h day/night regime, growth was monitored by determining the fresh weight of the explants (above controls grown on a medium devoid of any carbohydrate source).

[7] = tested on: Petunia; test: Sensitivity of Petunia to galactose; assay type: cell-based
Protocol: as §2

[8] = tested on: potato explants transformed with pVIC-galT; test: Selection of transgenic potato shoots (galT vector) on galactose containing media; assay type: cell-based, Solanum tuberosum; settings: for No. of transgenic shoots: GUS assay
Protocol: Young leaves useful for the transformation of potato were prepared from leaves of 28 d old in vitro shoot cultures. The leaves were cut off avoiding the meristem at the leaf corner and were cut twice across the midvein. The explants were inoculated for 30 min. with a suspension of Agrobacterium tumefaciens strain EHA101 (OD660=0.5) harbouring the transformation vector described above. After inoculation, the explants were dried carefully on filterpaper and left for co-cultivation for 3 d in dim light.
as §1, with “of” for “of modified”, “3 and 6” for “7-8”, “4).” for “3).”

[9] = tested on: tissues of barley; settings: Roberts et al.; cited from earlier work
[10] = tested on: oil seed rape hypocotyl explants; test: Toxicity of galactose to oil seed rape hypocotyl explants (shoot regeneration); assay type: cell-based, Brassica napus
Protocol: as §2
Hypocotyl explants useful for the transformation of oil seed rape were prepared using a protocol modified after Radke et al. (1988. Theor. Appl. Genet. 78: 161-168). Hypocotyls of 5 d old seedlings were cut into 1 cm segments and transferred to modified MS-medium (Murashige and Skoog 1962. Physiol. Plant. 15: 473-497) containing sucrose and galactose according to the experiment. After 3-4 weeks, shoots were harvested and the explants were transferred to fresh medium of the same composition. This was repeated for 3 more harvests and the total number of regenerated shoots formed on each medium was calculated (see table below).

[11] = tested on: tissues of maize; settings: Roberts et al.; cited from earlier work
[12] = 2.5 g/l galactose, sucrose 0 g/l
[13] = 2.5 g/l galactose, sucrose 5.0 g/l
[14] = 2.5 g/l galactose, sucrose 10 g/l
[15] = 2.5 g/l galactose, sucrose 20 g/l
[16] = 5.0 g/l galactose, sucrose 0 g/l
[17] = 5.0 g/l galactose, sucrose 5.0 g/l
[18] = 5.0 g/l galactose, sucrose 10 g/l
[19] = 5.0 g/l galactose, sucrose 20 g/l
[20] = galactose 1.25 g/l, sucrose 10 g/l
[21] = galactose 1.25 g/l, sucrose 15 g/l
[22] = galactose 1.25 g/l, sucrose 20 g/l
[23] = galactose 2.5 g/l, sucrose 10 g/l
[24] = galactose 2.5 g/l, sucrose 15 g/l
[25] = galactose 2.5 g/l, sucrose 20 g/l

With `OC[C@H]1OC(O)[C@H](O)[C@@H](O)[C@H]1O` (mixture of isomers) [galactose] the “fresh weight of the explants” value [1] was “significant reduction”, the number of shoots [1] was “significant reduction” and the “growth of the explants” value [2] was “unable to sustain any growth”. The “total number of explants with regenerated shoots” value (“total number of explants” for short) [3, 12] was 1, the “total number of explants” value [3, 13] was 0 and the “total number of explants” value [3, 14] was 0. The “total number of explants” value [3, 15] was 7, the “total number of explants” value [3, 16] was 0 and the “total number of explants” value [3, 17] was 0. The “total number of explants” value [3, 18] was 0, the “total number of explants” value [3, 19] was 0 and the “Transformation frequency (%)” value [4] was 1.0%. For the same compound, the “No. of transgenic shoots” value ([4]; shoots more than 50% β-glucuronidase-positive, 7-8 weeks) was 4, the Average shoot length ([5]; galactose 2.5 g/l) was 89 and the Germination of embryos ([5]; galactose 2.5 g/l) was 43. The Average shoot length ([5]; galactose 5.0 g/l) was 67, the Germination of embryos ([5]; galactose 5.0 g/l) was 29 and the Average shoot length ([5]; galactose 7.5 g/l) was 0. It also gave a Germination of embryos ([5]; galactose 7.5 g/l) of 0, an Average shoot length ([5]; galactose 10 g/l) of 33 and a Germination of embryos ([5]; galactose 10 g/l) of 14. For the same compound, the Average shoot length ([5]; galactose 15 g/l) was 0, the Germination of embryos ([5]; galactose 15 g/l) was 0 and the Fresh weight ([6]; galactose 5.0 g/l) was 28 mg/explant. For the same compound, the Fresh weight ([6]; galactose 7.5 g/l) was 0 mg/explant, the Fresh weight ([6]; galactose 10 g/l) was 0 mg/explant and the Fresh weight ([6]; galactose 15 g/l) was 0 mg/explant. For the same compound, the “sensitivity to galactose (level of toxicity)” value [7] was “fairly tolerant”, the “ability of galactose to sustain growth” value ([7]; stated for all tested plant species incl. Petunia) was “unable to sustain growth” and the “Transformation frequency (%)” value [8, 20] was 6.0%. The “No. of transgenic shoots” value [8, 20] was 3, the “Transformation frequency (%)” value [8, 21] was 14.0% and the “No. of transgenic shoots” value [8, 21] was 7. The “Transformation frequency (%)” value [8, 22] was 6.0%, the “No. of transgenic shoots” value [8, 22] was 3 and the “Transformation frequency (%)” value [8, 23] was 2.0%. The “No. of transgenic shoots” value [8, 23] was 1, the “Transformation frequency (%)” value [8, 24] was 0% and the “No. of transgenic shoots” value [8, 24] was 0. The “Transformation frequency (%)” value [8, 25] was 8.0%, the “No. of transgenic shoots” value [8, 25] was 4 and the “toxicity to tissues of barley” value [9] was “toxic”. For the same compound, the “total number of regenerated shoots” value [10, 12] was 0, the “total number of regenerated shoots” value [10, 13] was 1 and the “total number of regenerated shoots” value [10, 14] was 7. For the same compound, the “total number of regenerated shoots” value [10, 15] was 26, the “total number of regenerated shoots” value [10, 16] was 0 and the “total number of regenerated shoots” value [10, 17] was 0. For the same compound, the “total number of regenerated shoots” value [10, 18] was 3, the “total number of regenerated shoots” value [10, 19] was 22 and the “toxicity to tissues of maize” value [11] was “toxic”.
